Experimental data taken from ChEMBL document CHEMBL4483862, “Open-source discovery of chemical leads for next-generation chemoprotective antimalarials” (2018).

Test system: Plasmodium berghei
Test: Luciferase/luciferin-expressing antifolate-resistant parasites were used to infect a culture of HepG2 cells that were pre-incubated with compounds. Infected hepatocytes emit light due to the luciferase reaction. Assay results are presented as the percent inhibition of light emission compared to control. […]
Type: functional
Conditions: sporozoite; for IC50: read-out: LUCIFERASE INFECTION ASSAY - IC50; for IC90: read-out: LUCIFERASE INFECTION ASSAY - IC90

Row | Structure (SMILES) | IC50 [µM] | IC90 [µM]
1 | NC(=O)C1CCN(C(=O)CCn2c(=O)oc3ccccc32)CC1 | > 10 | > 10
2 | O=C(Nc1ccc(-c2nc3ccccc3[nH]2)cc1)C1CCCO1 (stereo not given) | > 10 | > 10
3 | Cc1ccc(OCC(O)CN2CCc3ccccc3C2)c(C)c1 (stereo not given) | > 9.49 | > 9.49
4 | O=C(C1CCCN(C2=NS(=O)(=O)c3ccccc32)C1)N1CCOCC1 (stereo not given) | > 10 | > 10
5 | Cc1ccc(C)c(Sc2ccc(S(=O)(=O)NCCN(C)C)cc2)c1 | > 10 | > 10
6 | Cc1cc(C(=O)C(C)OC(=O)C2=COCCO2)c(C)n1-c1ccc(Cl)cc1 (stereo not given) | 6.48 | > 10
7 | COC(=O)c1sc2[nH]c(COC(=O)c3ccccc3)nc(=O)c2c1C | > 10 | > 10
8 | CN(C)c1nc(N)nc(COC(=O)c2cccc(Br)c2)n1 | > 10 | > 10
9 | Cc1[nH]c2ccccc2c1-c1nc(Nc2ccc3c(c2)OCCO3)sc1C | > 10 | > 10
10 | CC(=O)c1c(C)[nH]c(C(=O)Nc2ccc3ccccc3n2)c1C | 0.934 | 1.16
11 | O=C1NC(c2ccc(N3CCCCC3)cc2)Nc2ccccc21 (stereo not given) | 0.0973 | 0.743
12 | Cc1nc(SCc2csc(-c3ccccc3)n2)c(C#N)c(C)c1C | > 10 | > 10
13 | CC(=O)c1c(C)[nH]c(C(=O)COC(=O)c2cnn(-c3ccccc3)c2)c1C | > 10 | > 10
14 | O=C(NCCOc1ccc(Cl)cc1)c1ccc(=O)n(Cc2ccccc2)n1 | > 10 | > 10
15 | CCOC(=O)NC(=O)COC(=O)CCc1ccc(OC)cc1 | > 10 | > 10
16 | CCOc1ccc(CN(CC)C(=O)c2ccc(=O)[nH]c2)cc1OC | > 10 | > 10
17 | O=C(Nc1ccccc1C(=O)OCCC(F)(F)F)c1ccccc1 | > 10 | > 10
18 | CC(C)c1ccccc1N(C(=O)C1CCC1)c1nc2ccccc2s1 | > 10 | > 10
19 | Cn1nc(C(=O)NCC(c2cccs2)N2CCCC2)c2ccccc2c1=O (stereo not given) | > 10 | > 10
20 | COc1ccc(-n2c(=O)c3ccccc3n3c(SCC(N)=O)nnc23)cc1 | > 10 | > 10
21 | Cc1cc(C(=O)CSc2nc(N)nc(N)n2)c(C)n1CCC1=CCCCC1 | > 10 | > 10
22 | Cc1ccc(C)c(-c2nn(CC(=O)c3cc(C)n(C)c3C)c(=O)c3ccccc23)c1 | > 10 | > 10
23 | CN(C)C(=O)CN(C)S(=O)(=O)/C=C/c1ccccc1 | > 10 | > 10

Row | Structure (SMILES) | IC50 [µM] | IC90 [µM]
24 | COc1ccc(OC)c(NC(=O)c2cc(-c3ccccc3)nn2-c2ccccc2)c1 | > 10 | > 10
25 | O=C(CN1CCN(C(=O)CCc2cnn(-c3ccccc3)c2)CC1)NC1CC1 | > 10 | > 10
26 | O=C(OCc1cc(=O)n2cc(Br)ccc2n1)C1(c2ccccc2)CC1 | > 10 | > 10
27 | CC(=O)NCCCc1ccc(C(=O)Cn2cc(C(F)(F)F)ccc2=O)cc1 | > 10 | > 10
28 | O=C(NC1CCCc2ccccc21)c1cc(Cl)nc(Cl)c1 (stereo not given) | > 10 | > 10
29 | Cc1cc(C)cc(NC(=O)C(Sc2nc(=O)cc(N)[nH]2)c2ccccc2)c1 (stereo not given) | > 10 | > 10
30 | Cc1ccc(-n2c(C)nnc2SCCCc2nc(-c3ccccc3)no2)cc1 | > 10 | > 10
31 | CCCc1ccc(-c2nc(NC(=O)CCc3ccsc3)sc2C)cc1 | > 10 | > 10
32 | CC(Sc1nc(-c2ccccc2)c(-c2ccccc2)o1)C(=O)N1CCNC1=O (stereo not given) | > 10 | > 10
33 | CCNc1nnc(SCc2nc(-c3cccs3)no2)s1 | > 10 | > 10
34 | Cc1ccc(C(=O)CCC(=O)NCc2ccccc2)s1 | > 10 | > 10
35 | CCNc1nnc(SCC(=O)N2CCNC2=O)s1 | > 10 | > 10
36 | O=C(CCc1cccnc1)Nc1nc(-c2ccc3c(c2)OCCO3)cs1 | > 10 | > 10
37 | C=CCN(C(=O)c1cc(C2CC2)nc2ccccc12)c1nc2c(s1)CCCC2 | > 10 | > 10
38 | CC(=O)c1c(C)[nH]c(C(=O)CN(C)Cc2ccc(C(C)(C)C)cc2)c1C | > 10 | > 10
39 | O=C1COc2ccc(-c3csc(Nc4ccccc4C(F)(F)F)n3)cc2N1 | 5.54 | > 10
40 | O=C(NCCN1CCN(c2ncnc3sc4c(c23)CCC4)CC1)c1ccco1 | > 10 | > 10
41 | Cc1ccc(-c2nc3nc(N)n(C)c(=O)c3[nH]c2=O)cc1 | > 10 | > 10
42 | CC(NC(=O)Cn1c2ccccc2c(=O)c2ccccc21)c1cc2ccccc2o1 (stereo not given) | 6.06 | > 10
43 | CCn1c(NC(=O)c2cccnc2Oc2ccccc2)nc2ccccc21 | > 10 | > 10
44 | CC(=O)NCCc1ccc(C(=O)Cn2cnc3ccc(Cl)cc3c2=O)s1 | > 10 | > 10
45 | C#CCNS(=O)(=O)c1cccc(C(=O)Nc2nc(C)c(C)s2)c1 | > 10 | > 10
46 | CC(C)(C)C(=O)COC(=O)c1ccc(-c2ccc(O)cc2)cc1 | > 10 | > 10

Row | Structure (SMILES) | IC50 [µM] | IC90 [µM]
47 | Cc1nc(-c2ccccc2)sc1C(=O)OC(C)C(=O)N1CCNC1=O (stereo not given) | > 10 | > 10
48 | CCOC(=O)C1=C(CN(C)C2CCCCC2)NC(=O)NC1 | > 10 | > 10
49 | CCCNC(=O)COC(=O)c1cc(Br)ccc1N | > 10 | > 10
50 | Cc1cc(C(C)(C)C)cc(C)c1CCN1C(=O)CSC1c1cccnc1 (stereo not given) | > 10 | > 10
51 | Cc1ccc(Oc2ccc(S(=O)(=O)NCCN(C)C)cc2)cc1 | > 10 | > 10
52 | COC(=O)c1c(C)[nH]c(C(=O)CSc2nnc(C)s2)c1C | > 10 | > 10
53 | COCCCn1c(SCC(=O)NC(=O)Nc2ccccc2)n[nH]c1=O | > 10 | > 10
54 | CCOc1ccccc1CCC(=O)NCc1ccc(CS(N)(=O)=O)cc1 | > 10 | > 10
55 | CCCN1CCN(c2c3ccc(Cl)cc3nc3ccc(OC)cc23)CC1 | > 10 | > 10
56 | CC(C)CNC(=O)NC(=O)COC(=O)c1c2c(nc3ccccc13)CCCCC2 | 3.9 | 7.96
57 | CCC(Sc1nnc(-c2ccccc2F)[nH]1)C(=O)Nc1ccccc1 (stereo not given) | > 10 | > 10
58 | O=C(CCc1nc2ccccc2s1)N(Cc1ccccc1F)C1CC1 | > 10 | > 10
59 | Cc1c(-n2nnnc2SCC(C)C)c(=O)n(-c2ccccc2)n1C | > 10 | > 10
60 | Cc1ccc2c(Cl)cc(Cl)c(OCC(=O)NC3CCCCC3C)c2n1 (stereo not given) | > 10 | > 10
61 | COC(=O)c1cc(CNC(=O)c2ccccc2O)ccc1OC | > 10 | > 10
62 | Cc1cccc(-n2c(SC(C)C(N)=O)nc3ccccc3c2=O)n1 (stereo not given) | > 10 | > 10
63 | O=C(CN1CCN(C(=O)CN2C(=O)NC3(CCCC3)C2=O)CC1)N1CCCC1 | > 10 | > 10
64 | CN(C)S(=O)(=O)c1ccc(N2CCCC2)c(C(=O)N2CCCC2)c1 | > 10 | > 10
65 | Cc1ccc2cc(CN3CCCCC3C(N)=O)c(Cl)nc2c1C (stereo not given) | > 10 | > 10
66 | Cn1cnnc1SCC(=O)NC(Cc1c[nH]c2ccccc12)C(=O)O (stereo not given) | > 10 | > 10
67 | O=C(CN1CCN(Cc2nc3ccccc3s2)CC1)N1CCc2ccccc21 | > 10 | > 10
68 | CCn1c(SCc2nc3ccccc3c(=O)n2CC(N)=O)nnc1C1CC1 | > 10 | > 10
69 | O=C(OCc1cccc(Cl)c1)c1cncn1-c1ccccc1 | > 10 | > 10

Row | Structure (SMILES) | IC50 [µM] | IC90 [µM]
70 | Cc1c(C(=O)Nc2ncc(Cc3ccccc3)s2)[nH]c2c1C(=O)CC(C)(C)C2 | > 10 | > 10
71 | O=c1nc(CN2CCN(c3ccc(C(F)(F)F)cn3)CC2)[nH]c2ccccc12 | > 10 | > 10
72 | CN(C)C(=O)CNC(=O)c1ccc(C(F)(F)F)cc1 | > 10 | > 10
73 | Cc1nn(Cc2nnc(-c3ccco3)o2)c(C)c1S(=O)(=O)N1CCCCC1 | > 10 | > 10
74 | O=C(COC(=O)CNS(=O)(=O)/C=C/c1ccccc1)NC1CCCCC1 | > 10 | > 10
75 | CC(C)c1ccc(-c2nnc(NC(=O)c3cn4ccccc4n3)s2)cc1 | 9.54 | > 10
76 | CCc1nn2c(=O)cc(CSc3nnc(-c4cc(C)cc(C)c4)o3)nc2s1 | > 10 | > 10
77 | Cc1cc(-c2nc(C)sc2CC(=O)O)c(C)s1 | > 10 | > 10
78 | CCOC(=O)c1sc(N)c(C#N)c1COC(=O)c1c(CC)noc1C | 0.244 | 0.249
79 | O=C(Nc1nc2ccccc2[nH]1)c1oc2ccccc2c1COc1ccccc1 | > 10 | > 10
80 | CC(C)Cn1c(SC2CCOC2=O)nc2cc(Cl)ccc2c1=O (stereo not given) | > 10 | > 10
81 | COC(=O)c1cc(-c2ccc(C)cc2)nc2onc(C(C)C)c12 | > 10 | > 10
82 | O=C(c1c[nH]nc1-c1ccccc1)N1CCN(S(=O)(=O)c2ccccc2)CC1 | > 10 | > 10
83 | CC(C)(C)C(=O)CSc1nnc(-c2ccccc2F)[nH]1 | > 10 | > 10
84 | CCC1c2ccsc2CCN1Cc1cc(=O)n2cc(Cl)ccc2n1 (stereo not given) | > 10 | > 10
85 | Cn1c(N)c(N2CCNCC2)c(=O)n(C)c1=O | > 10 | > 10
86 | CCOC(=O)c1ccc(OC(C)C(=O)NC2CCCC(C)C2C)cc1 (stereo not given) | > 10 | > 10
87 | C#CC(CC)(CC)NC(=O)CSc1nc(C)nc2sc3c(c12)CCC3 | > 10 | > 10
88 | CCNC(=O)NC(=O)C(c1ccccc1)n1nc(C(=O)O)c2ccccc2c1=O (stereo not given) | > 10 | > 10
89 | Cc1csc(=O)n1CC(=O)Nc1cccc2ccccc12 | > 10 | > 10
90 | Cc1cc(=O)[nH]c(SCC(=O)c2cc(C)n(-c3ccccc3)c2C)c1C#N | > 10 | > 10
